# Where two headings read alike, the source gives them in different places. Primed or numbered codes have the meaning given here. *: point of attachment. Dabcyl′ = CN(C)c1ccc(/N=N/c2ccc(C(=O)*)cc2)cc1; EDANS = O=S(=O)(O)c1cccc2c(NCCN*)cccc12
# Tests used:
# [1] = target: T1, DWV 3C protease (GST-DWV 3C^pro) (Deformed wing virus, UniProt Q8B3M2); assay: FRET protease assay of GST-DWV 3C^pro with fluorogenic peptide substrate; type: biochemical; conditions: for Dependence of DWV 3C^pro inhibition on dithiothreitol: absence vs presence of 2 mM DTT; for IC50: pH 6.0, 33°C, n = 3, read-out: IC50 of DWV 3C^pro inhibitors
# T1 construct: cDNA corresponding to amino acid 2094–2353 of DWV polyprotein; made in house; host or cells: E. coli BL21
# T1 sequence (Q8B3M2 2094-2353): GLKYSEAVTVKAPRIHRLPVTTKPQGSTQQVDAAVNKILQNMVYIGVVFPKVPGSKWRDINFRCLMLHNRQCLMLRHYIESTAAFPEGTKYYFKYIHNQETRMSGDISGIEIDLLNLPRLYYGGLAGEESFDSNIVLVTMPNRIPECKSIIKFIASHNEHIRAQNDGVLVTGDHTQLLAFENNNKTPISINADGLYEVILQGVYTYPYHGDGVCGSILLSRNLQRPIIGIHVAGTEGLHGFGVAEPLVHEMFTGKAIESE
# Procedure: Dabcyl-PVQAKPEMDNPNPGE-Edans derived from the cleavage site between L-protein and VP2 (underlined, 205-218 of polyprotein) was used as a peptide substrate to measure the protease activity. E was added to the C-terminus to link Edans. FRET experiments were performed with Varioskan LUX multimode microplate reader (Thermo Fisher). We measured 100 μL of reaction mixture with 50 mM Citrate buffer, pH 6.0, 150 mM NaCl, 2 mM EDTA, 2 mM DTT containing 1 μM GST-DWV 3C^pro and 20 μM fluorogenic peptide substrate in a 96-well flat-bottom white microplate at 33°C. The relative fluorescence was measured using an excitation wavelength of 336 nm and by monitoring the emission at 490 nm every 3 min for 30 min. In order to determine the optimal reaction condition for GST-DWV 3C^pro, various pH values, temperatures, and DTT concentrations were used. To test the effect of DTT on the activity, the protein dialyzed against TNE buffer was used. To determine the velocity of product formation, we precalibrated the instrument with the free Edans standard in the presence of 20 μM Dabcyl to calculate the relationship between relative fluorescence and substrate concentration. We calculated the kinetic parameters, Km, Vmax, and catalytic efficiency (Kcat/Km) assuming Michaelis-Menten kinetics for the cleavage of peptide.
# To identify the inhibitors for DWV 3C^pro, various concentrations of the tested compounds were added. To determine the inhibitory effects of the various compounds, we preincubated the compound and enzyme on ice for 10 min prior to addition of the peptide substrate. To analyze the effects of ebselen, disulfiram, and carmofur, we used the enzyme dialyzed against TNE buffer and carried out the reaction with or without DTT. We determined the initial velocities of the enzymatic reactions and fitted to a sigmoidal dose-response equation with nonlinear regression analysis using GraphPad Prism 9. The data from three independent assays were used to determine IC50 value of each compound.
# [2] = system: main protease of SARS-CoV-2; conditions: by covalently modifying cysteine in the catalytic diad; cited from earlier work
# DWV [3] = system: DWV; design: method as in PMID 33643262; conditions: based on the synthesis of RdRP, cited from earlier work
# enterovirus 3C^pro = system: enterovirus 3C^pro; design: method as in PMID 21813612, PMID 27645381, PMID 10197965; conditions: cited from earlier work
# human rhinovirus 3C^pro = system: human rhinovirus 3C^pro; design: method as in PMID 21813612, PMID 27645381, PMID 10197965; conditions: cited from earlier work
# DWV [4] = assay: DWV replication (RdRP precursor synthesis, Western blot) in DWV-infected honey bee pupal head cells; type: cell-based, Deformed wing virus (DWV)
# Procedure: Honey bee pupae with pale/pink eyes were collected from a mite-free colony. They were surface sterilized by washing with 10% bleach followed by sterile PBS three times (5 min for each wash). Heads from the pupae were dissected and homogenized seven times with 1 mL Grace culture medium using Dounce homogenizer (Loose fitting). The homogenate was then filtered through a cell strainer (Falcon) and the number of cells was counted. 10^6 cells were suspended in 100 μL of Grace medium containing 10% FBS, antibiotics (penicillin and streptomycin), and ebselen at the indicated concentration with or without DWV (MOI: 10) in 24-well plate at 33°C for 1 h. DWV used for this study was one of type A strains (VD-B7) we previously isolated from Varroa mite-infested pupa ([8]). […]
# After DWV infection, the pupal head cells were collected by centrifugation, and then homogenized with 150 μL of RIPA buffer (20 mM Tris-HCl, pH 7.5, 150 mM NaCl, 1% NP-40, 0.5% sodium deoxycholate, 0.1% SDS) containing protease inhibitor cocktail. After centrifugation of the homogenate, the protein concentration of supernatant was measured using Enhanced BCA protein assay kit. The cell lysate with 20 μg of protein was analyzed by Western blot for each sample. […] Band intensity of 97 kDa RdRP precursor was measured by image-J.
# [5] = system: honey bee pupal head cells; assay: Cell viability of honey bee pupal head cells (CellTiter-Lumi, intracellular ATP); type: cell-based, honey bee (Apis mellifera)
# Procedure: Honey bee pupal head cells were prepared as described above and 100 μL cell suspension (2 × 10^6/mL) was inoculated to each well in 96-well plate. The cells were cultured in the presence of either DMSO or ebselen at the indicated concentrations at 33°C for 16 h. The cultured plate was first incubated at room temperature for 10 min followed by adding 100 μL of reagent solution (CellTiter-Lumi Luminescent Cell Viability assay kit, Beyotime). The plate was shaken at room temperature for 2 min to promote cell lysis, and then further incubated for 10 min to stabilize the chemiluminescence signal. The signal was detected using Varioskan LUX multimode microplate reader and depends on intracellular ATP level, thus the relative viability of cells.
# [6] = compounds tested with or without 2 mM DTT and only effective without DTT
# [7] = tested in the presence of 2 mM DTT, 1 μM enzyme, 20 μM peptide substrate
# [8] = peptide substrate 2-20 μM, Michaelis-Menten
Compound,Dependence of DWV 3C^pro inhibition on dithiothreitol [1],"IC50 [1, 6]",Inhibition of the main protease of SARS-CoV-2 [2],"IC50 [1, 7]",other results
CCCCCCNC(=O)n1cc(F)c(=O)[nH]c1=O [Carmofur],only effective without dithiothreitol,127 ± 6.2 µM,inhibit the main protease of SARS-CoV-2,–,–
O=c1c(O)c(-c2ccc(O)c(O)c2)oc2cc(O)cc(O)c12 [Quercetin],–,–,–,430 ± 62.8 µM,DWV replication in honey bee pupal cells (DWV [3]): inhibited DWV replication
"PVQAKPEMDNPNPGE ({Dabcyl′}-PVQAKPEMDNPNPGE-{EDANS}) [Dabcyl-PVQAKPEMDNPNPGE-Edans, 15 amino acid fluorogenic FRET peptide substrate with the DWV L-protein/VP2 cleavage site]",–,–,–,–,"Km [1, 8]: 4.23 ± 0.256 µM; Vmax [1, 8]: 0.2538 ± 0.0067 µM/min"
CC(C)C[C@H](NC(=O)OCc1ccccc1)C(=O)N[C@@H](CC1CCNC1=O)C(O)S(=O)(=O)O (some centres unmarked) [GC376],–,–,–,55.2 ± 4 µM,–
"[Zn] [Zinc, zinc]",–,–,–,15200 ± 422 µM,–
CCN(CC)C(=S)SSC(=S)N(CC)CC [Disulfiram],only effective without dithiothreitol,35.6 ± 0.8 µM,inhibit the main protease of SARS-CoV-2,–,–
"O=C1C(Cl)=C(Cl)C(=O)c2ncccc21 [6,7-dichloroquinoline-5,8-dione]",–,–,–,129 ± 1.8 µM,–
CCOC(=O)/C=C/[C@H](C[C@@H]1CCNC1=O)NC(=O)[C@@H](CC(=O)[C@@H](NC(=O)c1cc(C)on1)C(C)C)Cc1ccc(F)cc1 [Rupintrivir],–,–,–,0.36 ± 0.03 µM,DWV replication in honey bee pupal cells (DWV [3]): inhibited DWV replication; DWV replication in honey bee pupal cells (DWV [3]; listed as rupintrivir): suppresses DWV replication; IC50 (enterovirus 3C^pro): 1.65 to 7.3 µM; IC50 (human rhinovirus 3C^pro): 0.005 µM
O=c1c2ccccc2[se]n1-c1ccccc1 [Ebselen],only effective without dithiothreitol,1.66 ± 0.02 µM,inhibit the main protease of SARS-CoV-2,–,"Synthesis of the 97 kDa precursor of RdRP and 3C^pro (DWV [4]; DWV-infected pupal head cells, MOI 10, 33°C, 16 h, increasing ebselen concentrations vs DMSO): decreased the synthesis of the 97 kDa precursor of RdRP and 3C^pro in a concentration-dependent manner; DWV replication in honey bee cells (DWV [4]; cultured honey bee cells): inhibited DWV replication; Toxicity to honey bee cells [5]: toxic to the cells; Cell viability (luminescence) vs DMSO ([5]; 30 μM, 16 h, 33°C): no significant difference; Cell viability ([5]; 100 and 250 μM, 16 h, 33°C, vs DMSO): cell viability was reduced"

# From PMC9241925, “DWV 3C Protease Uncovers the Diverse Catalytic Triad in Insect RNA Viruses” (Microbiology Spectrum, 2022)
